One data set relates to fleas. To be noted: cited from earlier work.
For data set [1] the following is noted: cited from earlier work.
In the next data set the test system is ticks. Conditions: cited from earlier work.
The test system of another data set is felines. Conditions: cited from earlier work.
The nature of data set [2]: Solubility in aprotic polar solvents. In kind it is physicochemical. The text has this: Dinotefuran is a hydrophilic compound that will dissolve in water (approx. 40 g/L). While dinotefuran is most preferred, nitenpyram is highly hydrophilic and could be used in formulations where higher levels of neo-nicotinoid would be desirable. The ether pyrethroid etofenprox will dissolve in some aprotic polar solvents to provide up to 40-60 weight percent while most ester pyrethroids had little solubility. Other ether pyrethroids may be useful provided they have insecticidal activity and may be desirable because of cost and relatively low hydrophobicity.

Converted amounts (≈) assume the structure as drawn.

In the case of `CN/C(=N/CC1CCOC1)N[N+](=O)[O-]` (centres unmarked) [Dinotefuran], the kill of fleas result in the data set on fleas is on record as “will kill fleas”. Moreover, in data set [1], the “Water Solubility” value is 39.83 mg/mL and the dissolve in water result is given as “approx. 40 g/L”. Besides, in the data set on ticks, the kill of ticks result was “not ticks”.
Regarding `C/C(=N\C#N)N(C)Cc1ccc(Cl)nc1` [Acetamiprid], the “Water Solubility” value in data set [1] was 2.95 mg/mL.
Consider `CCOc1ccc(C(C)(C)COCc2cccc(Oc3ccccc3)c2)cc1` [Etofenprox], for which, in the data set on fleas, the kill of fleas entry is “will kill both fleas and ticks”. Moreover, in the data set on felines, the toxicity to felines entry was “not toxic to felines”. Besides, in data set [1], the solubility in water was 0.001 mg/mL (≈ 2.66 µM). The “dissolves in some aprotic polar solvents” value in data set [2] was 40-60 weight percent. Further, the kill of ticks result in the data set on ticks is “will kill both fleas and ticks”.
With `CCN(Cc1ccc(Cl)nc1)/C(=C/[N+](=O)[O-])NC` [Nitenpyram], the “Water Solubility” value in data set [1] was 840 mg/mL.
